Target: T1, human IDO1/HEK293 cells (Homo sapiens, UniProt P14902)
T1 construct: expressed in transfected cells
Experiment: HEK Human IDO-1 cell-based IDO inhibition assay (kynurenine production)
Details: HEK293 cells stably expressing human IDO1, 20 hours incubation, absorbance at 490 nm; read-out: HEK Human IDO-1 Bio Activity (IDO IC50)
Procedure: They were cultured in medium (DMEM with 10% FBS) containing 1 mg/ml G418 for two weeks.
The human IDO1/HEK293 cells were seeded at 10,000 cells per 50 μL per well with RPMI/phenol red free media contains 10% FBS in a 384-well black wall clear bottom tissue culture plate (Matrix Technologies LLC) 100 nL of certain concentration of compound was then added to each well using ECHO liquid handling systems. The cells were incubated for 20 hours in 37° C. incubator with 5% CO2.
The compound treatments were stopped by adding trichloroacetic acid (Sigma-Aldrich) to a final concentration at 0.2%. The cell plate was further incubated at 50° C. for 30 minute. The equal volume supernatant (20 μL) and 0.2% (w/v) Ehrlich reagent (4-dimethylaminobenzaldehyde, Sigma-Aldrich) in glacial acetic acid were mixed in a new clear bottom 384-well plate. This plate was then incubated at room temperature for 30 minute. The absorbance at 490 nm was measured on Envision plate reader.

T1 sequence (P14902 whole entry): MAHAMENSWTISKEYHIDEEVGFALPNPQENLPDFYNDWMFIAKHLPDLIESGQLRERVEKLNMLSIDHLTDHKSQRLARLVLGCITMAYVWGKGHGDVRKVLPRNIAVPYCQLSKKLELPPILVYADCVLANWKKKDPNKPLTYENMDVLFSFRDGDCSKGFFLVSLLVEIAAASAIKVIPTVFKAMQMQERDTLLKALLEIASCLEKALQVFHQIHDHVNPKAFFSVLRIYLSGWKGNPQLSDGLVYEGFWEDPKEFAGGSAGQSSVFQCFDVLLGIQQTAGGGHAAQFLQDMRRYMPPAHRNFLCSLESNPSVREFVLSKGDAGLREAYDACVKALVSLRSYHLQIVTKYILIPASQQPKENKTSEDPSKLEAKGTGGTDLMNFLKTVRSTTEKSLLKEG

Compound	IC50 [nM]
CC(NC(=O)c1ccc(Cl)cc1)C1CCC(c2ccnc(C(F)(F)F)c2)CC1 (single isomer, unassigned) [Example 212, 4-chloro-N-(1-(4-(2-(trifluoromcthyl)pyridin-4-yl)cyclohexyl)ethyl)benzamide]	< 2000
Cc1c(C2CCC(C(C)NC(=O)c3ccc(-c4ccccc4)cc3)CC2)ccnc1F (single isomer, unassigned) [Example 224, N-(1-(4-(2-fluoro-3-methylpyridin-4-yl)cyclohexyl)ethyl)-[1,1′-biphenyl]-4-carboxamide]	< 250
COc1ccc(S(=O)(=O)N[C@H](C)[C@H]2CC[C@@H](c3ccnc4ccc(F)cc43)CC2)cc1 [Example 46, N-((R)-1-((1s,4S)-4-(6-fluoroquinolin-4-yl)cyclohexyl)ethyl)-4-methoxybenzenesulfonamide]	< 2000
C[C@@H](NC(=O)c1ccc(-c2cnco2)cc1)[C@H]1CC[C@@H](c2ccnc3ccc(F)cc32)CC1 [Example 250, N-((R)-1-((1s,4S)-4-(6-fluoroquinolin-4-yl)cyclohexyl)ethyl)-4-(oxazol-5-yl)benzamide]	< 50
COc1nccc(-c2ccc(C(=O)N[C@H](C)[C@H]3CC[C@@H](c4ccnc5ccc(F)cc54)CC3)cc2)n1 [Example 236, N-((R)-1-((1s,4S)-4-(6-fluoroquinolin-4-yl)cyclohexyl)ethyl)-4-(2-methoxypyrimidin-4-yl)benzamide]	< 50
Cc1ccc(C(=O)NC(C)C2CCC(Oc3ccnc(C)c3Cl)CC2)cc1 (racemic) [Example 210]	< 250
C[C@@H](NC(=O)c1cccc(-c2ccccc2)c1)[C@H]1CC[C@@H](c2ccnc3ccc(F)cc32)CC1 [Example 61, N-((R)-1-((1s,4S)-4-(6-fluoroquinolin-4-yl)cyclohexyl)ethyl)-[1,1′-biphenyl]-3-carboxamide]	< 50
O=C(NCC1CCN(c2ccnc3ccc(F)cc23)CC1)c1ccc(Cl)cc1 [Example 88]	< 2000
Cc1nccc(O[C@H]2CC[C@H](C(C)NC(=O)c3ccc(Cl)cc3)CC2)c1Cl (mixture of isomers) [Example 207, rac-4-chloro-N-(1-((trans)-4-((3-chloro-2-methylpyridin-4-yl)oxy)cyclohexyl)ethyl)benzamide]	< 50
C[C@@H](NC(=O)c1cccc(Cl)c1)[C@H]1CC[C@@H](c2ccnc3ccc(F)cc32)CC1 [Example 57, 3-chloro-N-((R)-1-((1s,4S)-4-(6-fluoroquinolin-4-yl)cyclohexyl)ethyl)benzamide]	< 50
COc1cccc(S(=O)(=O)N[C@H](C)[C@H]2CC[C@@H](c3ccnc4ccc(F)cc43)CC2)c1 [Example 45, N-((R)-1-((1s,4S)-4-(6-fluoroquinolin-4-yl)cyclohexyl)ethyl)-3-methoxybenzenesulfonamide]	< 2000
C[C@@H](NC(=O)c1cc(Cl)cc(Cl)c1)[C@H]1CC[C@@H](c2ccnc3ccc(F)cc32)CC1 [Example 66, 3,5-dichloro-N-((R)-1-((1s,4S)-4-(6-fluoroquinolin-4-yl)cyclohexyl)ethyl)benzamide]	< 50
CC(NC(=O)c1ccc(Cl)cc1)C1CCC(c2ccc(C(F)(F)F)nc2)CC1 (single isomer, unassigned) [Example 219, 4-chloro-N-(1-(4-(6-(trifluoromethyl)pyridin-3-yl)cyclohexyl)ethyl)benzamide]	< 250
Cc1ccc(C(=O)NCC2CCN(c3ccnc4ccc(F)cc34)CC2)cc1 [Example 86, N-((1-(6-Fluoroquinolin-4-yl)piperidin-4-yl)methyl)-4-methylbenzamide]	< 250
O=C(Nc1ccc(-c2ccccc2)cc1)N1CCN(c2ccnc3ccc(F)cc23)CC1 [Example 84, N-([1,1′-Biphenyl]-4-yl)-4-(6-fluoroquinolin-4-yl)piperazine-1-carboxamide]	< 2000
C[C@@H](NC(=O)c1ccc(C2CC2)cc1)[C@H]1CC[C@@H](c2ccnc3ccc(F)cc32)CC1 [Example 247, 4-cyclopropyl-N-((R)-1-((1s,4S)-4-(6-fluoroquinolin-4-yl)cyclohexyl)ethyl)benzamide]	< 50
O=C(Nc1ccc(Cl)cc1)N[C@H]1CC[C@@H](c2ccnc3ccc(F)cc32)CC1 [Example 125, 1-(4-Chlorophenyl)-3-(cis-4-(6-fluoroquinolin-4-yl)cyclohexyl)urea]	< 250
C=CC[C@@H](NC(=O)c1ccc(Cl)cc1)[C@H]1CC[C@@H](c2ccnc3ccc(F)cc32)CC1 [Example 198, 4-chloro-N—((R)-1-((1s, 4S)-4-(6-fluoroquinolin-4-yl)cyclohexyl)but-3-en-1-yl) benzamide]	< 50
C[C@@H](NC(=O)c1ccccc1-c1ccccc1)[C@H]1CC[C@@H](c2ccnc3ccc(F)cc32)CC1 [Example 69, N-((R)-1-((1s,4S)-4-(6-fluoroquinolin-4-yl)cyclohexyl)ethyl)-[1,1′-biphenyl]-2-carboxamide]	< 50
CCC(NC(=O)c1ccc(-c2ccccc2)cc1)C1CCC(c2ccnc3ccc(F)cc23)CC1 (centres unmarked) [Example 258, N-(1-(4-(6-fluoroquinolin-4-yl)cyclohexyl)propyl)bi-phenyl-4-carboxamide]	< 50
Cc1nccc(OC2CCC(C(C)NC(=O)c3ccc(F)cc3)CC2)c1Cl (racemic) [Example 208]	< 250
CCC(NC(=O)c1ccc(-n2cccc2)cc1)[C@H]1CC[C@@H](c2ccnc3ccc(C(F)(F)F)cc32)CC1 (some centres unmarked) [Example 255, 4-(1H-pyrrol-1-yl)-N-(1-((1s, 4s)-4-(6-(trifluoromethyl)quinolin-4-yl)cyclohexyl)propyl)benzamide]	< 50
O=C(Nc1ccc(F)cc1)N[C@H]1CC[C@H](c2ccnc3ccc(F)cc32)CC1 [Example 124, 1-(4-fluorophenyl)-3-(trans-4-(6-fluoroquinolin-4-yl)cyclohexyl)urea]	< 50
Fc1ccc2nccc([C@H]3CC[C@H](NCc4ccccc4)CC3)c2c1 [Example 130, trans-N-Benzyl-4-(6-fluoroquinolin-4-yl)cyclohexanamine]	< 250
CC(NC(=O)c1ccc(Cl)cc1)C1CCC(c2ccnc3ccnn23)CC1 (centres unmarked) [Example 197, 4-chloro-N-(1-(4-(pyrazolo[1,5-a]pyrimidin-7-yl)cyclohexyl)ethyl)benzamide]	< 250
C[C@@H](NS(=O)(=O)c1ccccc1Cl)[C@H]1CC[C@@H](c2ccnc3ccc(F)cc32)CC1 [Example 42, 2-chloro-N-((R)-1-((1s,4S)-4-(6-fluoroquinolin-4-yl)cyclohexyl)ethyl)benzenesulfonamide]	< 2000
O=C(N[C@H]1CC[C@H](c2ccnc3ccc(F)cc32)CC1)c1ccc(Cl)cc1 [Example 146, 4-chloro-N-(trans-4-(6-fluoroquinolin-4-yl)cyclohexyl)benzamide]	< 2000
C[C@@H](NC(=O)c1ccc(-c2cnc(C#N)nc2)cc1)[C@H]1CC[C@@H](c2ccnc3ccc(F)cc32)CC1 [Example 240, 4-(2-cyanopyrimidin-5-yl)-N-((R)-1-((1s,4S)-4-(6-fluoroquinolin-4-yl)cyclohexyl)ethyl)benzamide]	< 2000

Now from value to compound:

IC50 [nM]	Compound
< 50	CC[C@@H](NC(=O)c1ccc(Cl)cc1)[C@H]1CC[C@H](c2cnc3ccccc3c2)CC1 (single isomer, unassigned) [Example 203c]
< 2000	CCC(NC(=O)c1ccc(Cl)cc1)C1CCC(c2cccc(C(F)F)n2)CC1 (single isomer, unassigned) [Example 231b, 4-chloro-N-(1-(4-(6-(difluoromethyl)pyridin-2-yl)cyclohexyl)propyl)benzamide]
< 50	CCC(NC(=O)c1ccc(Cl)cc1)C1CCC(c2ccnc3ccc(F)cc23)CC1 (single isomer, unassigned) [Example 164b, 4-Chloro-N-(1-(4-(6-fluoroquinolin-4-yl)cyclohexyl)propyl)benzamide]
< 2000	CCC(NC(=O)c1ccc(C#N)cc1)C1CCC(c2ccnc3ccc(F)cc23)CC1 (single isomer, unassigned) [Example 165a, 4-Cyano-N-(1-(4-(6-fluoroquinolin-4-yl)cyclohexyl)propyl)benzamide]
< 250	CCC(NC(=O)c1ccc(Cl)cc1)[C@H]1CC[C@@H](Oc2ccncc2)CC1 (mixture of isomers) [Example 77a, (±)-4-Chloro-N-(1-((cis)-4-(pyridin-4-yloxy)cyclohexyl)propyl)benzamide]
< 50	CCC(NC(=O)c1ccc(C#N)cc1)C1CCC(c2ccnc3ccc(F)cc23)CC1 (single isomer, unassigned) [Example 165c, 4-Cyano-N-(1-(4-(6-fluoroquinolin-4-yl)cyclohexyl)propyl)benzamide]
< 2000	Cc1cc(C2CCC(C(C)NC(=O)c3ccc(Cl)cc3)CC2)ccn1 (single isomer, unassigned) [Example 157d, 4-Chloro-N-(1-(4-(2-methylpyridin-4-yl)cyclohexyl)ethyl) Benzamide]
< 50	Cc1c(C2CCC(C(C)NC(=O)c3ccc(Cl)cc3)CC2)ccnc1F (centres unmarked) [Example 158a, 4-chloro-N-(1-(4-(2-fluoro-3-methylpyridin-4-yl)cyclohexyl)ethyl)benzamide]
< 2000	Cc1cc(C2CCC(C(C)NC(=O)c3ccc(Cl)cc3)CC2)ccn1 (single isomer, unassigned) [Example 157e, 4-Chloro-N-(1-(4-(2-methylpyridin-4-yl)cyclohexyl)ethyl) Benzamide]
< 2000	Cc1cc(C2CCC(C(C)NC(=O)c3ccc(Cl)cc3)CC2)ccn1 (single isomer, unassigned) [Example 157c, 4-Chloro-N-(1-(4-(2-methylpyridin-4-yl)cyclohexyl)ethyl) Benzamide]

From patent US20180325889A1, “IMMUNOREGULATORY AGENTS” (FLEXUS BIOSCIENCES, INC., priority 2014, published 2018)
